Source: PMC9233675, “Ru(II) photocages enable precise control over enzyme activity with red light” (Nature Communications, 2022)
Residue numbers refer to the chain shown, from its start. Several values for one entry are separate records, joined by “and”; a condition that tells them apart may be missing. Identical values can stand only once. Like-named read-outs stand apart in the source and are kept apart here.

Legend:
[1] = system: cytochrome P450 enzymes in pooled human liver microsomes; assay: Inhibition of cytochrome P450 enzymes in pooled human liver microsomes (phLM); assay type: biochemical; conditions: human, pooled human liver microsomes, pH 7.8, probe 7-benzoyloxy-4-trifluoromethylcoumarin, 50 µM; Dark; conversion of 7-benzoyloxy-4-trifluoromethylcoumarin
Description: (§1) Pooled human liver microsomes were used to test the potential impact of the inhibitors on multiple polymorphisms of highly promiscuous, drug metabolizing CYPs[27]. There are more than 10 different CYPs in this preparation, and the use of pooled microsomes ensures that genetic variability in CYPs is represented. […] This is notable, as the liver CYPs have evolved to bind the widest possible variety of molecules.
(§2) Commercial preparations of pooled human liver microsomes come from 50 individuals, providing representation of biologically relevant CYP variants. Compounds were screened for inhibition of cytochrome P450 enzymes in phLMs using a 96-well kinetic assay. […] Compound stocks were diluted in dose–response, and added in 100 mM potassium phosphate buffer pH 7.8 with 50 µM 7-benzoyloxy-4-trifluoromethylcoumarin (Corning, prepared as a 10 mM DMSO stock) and 16 µg of phLMs (XenoTech, prepared as 20 mg protein/mL suspended in 250 mM sucrose) per well (n = 3). The compounds were incubated for 5 min in the absence of light at 25 °C. The 96-well plate was then either protected from light or irradiated with red light for 1 h (660 nm, 58.7 J/cm^2). Enzymatic turnover was initiated upon addition of NADPH (TCI, prepared immediately prior to addition) at a concentration 1.2 mM per well. To determine background fluorescence from the assay, NADPH was omitted from several control wells. The reactions were immediately placed in a SpectraFluor Plus plate reader (Tecan) preheated to 37 °C, and fluorescence measurements taken every 3 min for 120 min with excitation of 435 nm and emission of 525 nm. Fluorescence measurements in the […], and the data was processed with GraphPad Prism 6. The linear portion of the signal for each dose point with respect to time was first fitted to a line to determine the rate. The resulting slope of these lines was then plotted against the logarithmic concentration of the study compound to provide a dose–response curve.

CYP1B1 F134L = biological target: T1, CYP1B1 F134L (Homo sapiens, UniProt Q16678, F134L); assay: In cell CYP1B1 activity assay, F134L variant; conditions: for logSI F134L: log of the ratio of IC50 values mutant vs WT (Fig. 3c)
T1 sequence (Q16678 1-543 F134L): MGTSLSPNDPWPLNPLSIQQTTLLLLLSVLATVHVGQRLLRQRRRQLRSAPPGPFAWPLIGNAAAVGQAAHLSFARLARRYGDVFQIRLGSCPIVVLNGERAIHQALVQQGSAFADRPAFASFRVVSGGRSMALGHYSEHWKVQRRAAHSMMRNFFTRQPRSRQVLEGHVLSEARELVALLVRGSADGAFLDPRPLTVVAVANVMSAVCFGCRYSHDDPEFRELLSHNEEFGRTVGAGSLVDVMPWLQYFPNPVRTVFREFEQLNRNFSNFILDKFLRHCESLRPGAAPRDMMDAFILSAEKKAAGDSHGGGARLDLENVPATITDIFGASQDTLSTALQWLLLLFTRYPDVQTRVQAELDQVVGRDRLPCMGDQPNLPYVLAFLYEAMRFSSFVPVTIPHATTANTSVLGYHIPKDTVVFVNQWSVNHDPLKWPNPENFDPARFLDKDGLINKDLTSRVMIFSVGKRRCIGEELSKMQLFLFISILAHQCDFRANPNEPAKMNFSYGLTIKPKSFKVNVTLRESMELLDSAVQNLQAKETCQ
Description: Site directed mutagenesis was used to probe the importance of specific active-site contacts identified through the structural assessment (Fig. 3a, b) and simulations. In all cases, conservative mutations were made to maintain polar or hydrophobic character and approximate size. The aromatic residues that frame the inhibitor binding site, Phe143 and Phe231, were mutated to Leu to determine the importance of the π interactions. In addition, the Ser127 residue, located in the upper corner of the active site on the B-C loop, was chosen for mutation based on the simulations. This amino acid transiently contacts the inhibitors, but also forms a hydrogen bond with Asp326 of the I-helix, and thus may impact the position of this helix with regards to the B-C loop. […] Rather than directly mutating these residues in the I-helix, neighboring residues Gln332 and Asp333 were targeted, with the hope of interrupting amino acid interactions that position the helix within the active site.
The ratio of IC50 values for the WT vs. the mutant are shown in Fig. 3c and reflects the importance of the specific contact; the log of the value is used to aid in visualization.
(§3) Cell lines were seeded onto Geltrex coated 96-well plates at 40,000 cells/well, and grown overnight in DMEM media containing 1 μg/mL tetracycline. The media was then replaced with Opti-MEM supplemented with 2% FBS and 1 μg/mL tetracycline. Compounds were serially diluted in Opti-MEM supplemented with 2% FBS and 1 μg/mL tetracycline and an equal volume of compound added to the cells (n = 3). Following a 1 h incubation, resorufin ethyl ether (REE; for CYP1B1 and 1A1) or dibenzylfluorescein (DBF; for 19A1) was added to the cells for a total concentration of 5 μM for REE and 1 μM for DBF. […] Dose–response curves were generated in Prism and normalized using the no-compound control (set as 100% activity) and the no-cell control (set as 0% activity; this value in the raw data reflects the background fluorescence of the dye alone).

[2] = system: cytochrome P450 enzymes in phLMs; assay: Inhibition of cytochrome P450 enzymes in pooled human liver microsomes (phLM); assay type: biochemical; conditions: for SI (1B1:phLM): ratio of IC50 phLM to CYP1B1, for complexes 4–6 IC50 (light); for enzyme activity pHLM: dark, scale 0–100
Description: as §1, §2

CYP1B1 = biological target: T2, CYP1B1 (Homo sapiens, UniProt Q16678); assay: In cell activity assay for CYP1B1 (7-ethoxyresorufin conversion, HEK293 T-Rex cells); conditions: for % Enzyme Activity: dark; for IC50: n = 3; for % Enzyme Activity red light: 660 nm light (58.7 J/cm2)
T2 sequence (Q16678 1-543): T1 sequence (Q16678 1-543 F134L) with L134F
Description: To rigorously assess the activity of inhibitors under biologically relevant conditions, an assay was developed for screening of CYP1B1 activity in live cells.
A stable HEK cell line was created with CYP1B1 expression under the control of tetracycline to facilitate regulated and titratable expression (see the Methods section for more details). […] The fluorogenic substrate, 7-ethoxyresorufin (REE), is a validated substrate for both CYPs and was used in both assays. Cytochrome P450 oxidoreductase (POR) is the required reductase partner for CYPs, and was also overexpressed in these systems to improve catalytic efficiency and the resulting signal for the assay.
Cell lines were generated in the HEK293 T-Rex cell line. Following transfection, cells were selected with 500 μg/mL Zeocin, and 7.5 μg/mL Blasticidin to create a stable pool. Inducible expression of CYP and POR was confirmed by immunoblot. […] The lines were maintained with 250 μg/mL Zeocin and 7.5 μg/mL Blasticidin to ensure continued selective pressure.
as §3
For the light-activated compounds, the experiment was modified as follows: Cells were seeded and grown overnight as described above. Media was replaced with L-15 containing 1 μg/mL tetracycline; L-15 media was used in place of opti-MEM™ to maintain CO2 outside the incubator, and to prevent cellular damage from light. Compounds were serially diluted in L-15 with 1 μg/mL tetracycline and added to the cells followed by a 1 h incubation. […] REE or DBF was added as described above.

[3] = Dark, conversion of 7-benzoyloxy-4-trifluoromethylcoumarin, read-out: IC50 phLM Dark
[4] = Light: 660 nm, 58.7 J/cm^2, read-out: IC50 phLM Light
[5] = read-out: IC50 CYP1B1 Dark, Dark, conversion of 7-ethoxyresorufin (REE)
[6] = read-out: IC50 CYP1B1 Light, Light: 660 nm, 58.7 J/cm^2, REE

| IC50 [1] [nM] | logSI F134L (CYP1B1 F134L) | Compound | SI (1B1:phLM) [2] | % Enzyme Activity (CYP1B1; CYP1B1, Log Conc 0.39794) | % Enzyme Activity (CYP1B1; CYP1B1, Log Conc 1) | % Enzyme Activity (CYP1B1; CYP1B1, Log Conc -0.20412) | % Enzyme Activity (CYP1B1; CYP1B1, Log Conc -0.80618) | % Enzyme Activity (CYP1B1; CYP1B1, Log Conc -1.40824) | % Enzyme Activity (CYP1B1; CYP1B1, Log Conc -2.0103) | % Enzyme Activity (CYP1B1; CYP1B1, Log Conc -2.61236) | % Enzyme Activity (CYP1B1; CYP1B1, Log Conc -3.21442) | % Enzyme Activity (CYP1B1; CYP1B1, Log Conc -3.81648) | % Enzyme Activity (CYP1B1; CYP1B1, Log Conc -4.41854) | % Enzyme Activity (CYP1B1; CYP1B1, Log Conc -5.0206) | % Enzyme Activity (CYP1B1; CYP1B1, Log Conc -5.62266) | IC50 [2, 3] [nM] | IC50 [2, 4] [nM] | IC50 (CYP1B1; [5]) [nM] | IC50 (CYP1B1; [6]) [nM] | further results |
| --- | --- | --- | --- | --- | --- | --- | --- | --- | --- | --- | --- | --- | --- | --- | --- | --- | --- | --- | --- | --- |
| 11000 | 1 | COc1cc(/C=C/c2ccc(OC)cc2OC)cc(OC)c1 [Compound 1, reference compound] | – | – | – | – | – | – | – | – | – | – | – | – | – | – | – | – | – | – |
| 1180 | 0.5 | COc1ccc(/C=C/c2ccncn2)c(OC)c1 [Compound 2] | 16 | -2.174% and -0.1456% and -1.116% | -3.921% and -4.348% and -1.514% | 3.833% and 3.484% and 3.455% | 23.2531% and 22.7484% and 23.8839% | 62.2283% and 59.9476% and 62.7038% | 95.9724% and 93.1289% and 92.7213% | 93.2065% and 104.319% and 107.88% | 101.359% and 108.531% and 103.62% | 105.357% and 94.6429% | – | – | – | – | – | – | – | p IC50(uM) (CYP1B1; CYP1B1, negative log of the IC50 in μM): 1.119; IC50 (CYP1B1 F134L): 240 nM; Ratio IC50 (mutant)/ IC50 (WT), F134L (CYP1B1 F134L): 3 |
| – | – | COc1ccc(/C=C/c2cc[n+]([Ru-4]345([n+]6ccccc6-c6cccc([n+]63)-c3cccc[n+]34)[n+]3c(cc(C(=O)[O-])c4ccccc43)-c3cc(C(=O)[O-])c4ccccc4[n+]35)cn2)c(OC)c1 [Compound 5] | ∼1750 | – | – | – | – | – | – | – | – | – | – | – | – | > 30000 | ~30000 | 1730 | 17 | – |
| – | – | COc1ccc(/C=C/c2cc[n+]([Ru-4]345([n+]6ccccc6-c6cccc([n+]63)-c3cccc[n+]34)[n+]3c(cc(C(=O)[O-])c4ccccc43)-c3cc(C(=O)[O-])c4ccccc4[n+]35)cc2)c(OC)c1 [Compound 6] | 4300 | 37.9328% and 31.3874% | -5.282% and -4.5489% | 83.1691% and 81.3495% | 99.722% and 104.043% | 109.148% and 104.422% | 132.424% and 133.005% | 99.1913% and 124.791% | 127.496% and 122.416% | 106.293% and 106.621% | 105.939% and 103.083% | 100.606% and 105.459% | 101.365% and 96.184% | ~30000 | 1280 | 1900 | 0.3 | enzyme activity pHLM ([2]; Log conc 0.273001): 89.9976; enzyme activity pHLM ([2]; Log conc 0.875061): 84.6565; enzyme activity pHLM ([2]; Log conc 1.47712): 45.9092; enzyme activity pHLM ([2]; Log conc -0.329059): 93.178; enzyme activity pHLM ([2]; Log conc -0.931119): 88.2981; enzyme activity pHLM ([2]; Log conc -1.53318): 91.697; enzyme activity pHLM ([2]; Log conc -2.13524): 93.7121; % Enzyme Activity red light (CYP1B1; CYP1B1, Log Conc 0.39794): -2.704% and -2.565%; % Enzyme Activity red light (CYP1B1; CYP1B1, Log Conc 1): -2.451% and -1.971%; % Enzyme Activity red light (CYP1B1; CYP1B1, Log Conc -0.20412): -2.413% and -1.554%; % Enzyme Activity red light (CYP1B1; CYP1B1, Log Conc -0.80618): -1.314% and -2.085%; % Enzyme Activity red light (CYP1B1; CYP1B1, Log Conc -1.40824): -2.274% and -3.677%; % Enzyme Activity red light (CYP1B1; CYP1B1, Log Conc -2.0103): 1.567% and 0.556%; % Enzyme Activity red light (CYP1B1; CYP1B1, Log Conc -2.61236): 27.0407% and 26.6869%; % Enzyme Activity red light (CYP1B1; CYP1B1, Log Conc -3.21442): 48.2689% and 41.5972%; % Enzyme Activity red light (CYP1B1; CYP1B1, Log Conc -3.81648): 59.7422% and 63.5835%; % Enzyme Activity red light (CYP1B1; CYP1B1, Log Conc -4.41854): 78.0389% and 65.5042%; % Enzyme Activity red light (CYP1B1; CYP1B1, Log Conc -5.0206): 106.495% and 94.3139%; % Enzyme Activity red light (CYP1B1; CYP1B1, Log Conc -5.62266): 87.0104% and 112.181% |

| Compound | IC50 [1] [nM] | logSI F134L (CYP1B1 F134L) | SI (1B1:phLM) [2] | % Enzyme Activity (CYP1B1; CYP1B1, Log Conc 0.39794) | % Enzyme Activity (CYP1B1; CYP1B1, Log Conc 1) | % Enzyme Activity (CYP1B1; CYP1B1, Log Conc -0.20412) | % Enzyme Activity (CYP1B1; CYP1B1, Log Conc -0.80618) | % Enzyme Activity (CYP1B1; CYP1B1, Log Conc -1.40824) | % Enzyme Activity (CYP1B1; CYP1B1, Log Conc -2.0103) | % Enzyme Activity (CYP1B1; CYP1B1, Log Conc -2.61236) | % Enzyme Activity (CYP1B1; CYP1B1, Log Conc -3.21442) | % Enzyme Activity (CYP1B1; CYP1B1, Log Conc -3.81648) | % Enzyme Activity (CYP1B1; CYP1B1, Log Conc -4.41854) | % Enzyme Activity (CYP1B1; CYP1B1, Log Conc -5.0206) | % Enzyme Activity (CYP1B1; CYP1B1, Log Conc -5.62266) | IC50 [2, 3] [nM] | IC50 [2, 4] [nM] | IC50 (CYP1B1; [5]) [nM] | IC50 (CYP1B1; [6]) [nM] | further results |
| --- | --- | --- | --- | --- | --- | --- | --- | --- | --- | --- | --- | --- | --- | --- | --- | --- | --- | --- | --- | --- |
| COc1ccc(C=Cc2ccncc2)c(OC)c1 [Compound 3] | 334 | 1.7 | – | -5.843% and -5.409% and -4.402% | -2.892% and -0.02892% and -1.938% | -3.135% and -2.441% and -3.396% | 0.2661% and -0.4628% and 0.4396% | 4.865% and 3.164% and 4.917% | 14.3229% and 13.9758% and 14.3403% | 26.2625% and 28.9697% and 28.1888% | 46.5321% and 40.302% and 39.9202% | 56.0248% and 55.8165% and 54.8794% | 73.8474% and 69.3527% and 65.1356% | 73.3268% and 74.7498% and 84.3119% | 93.7872% and 77.0753% and 77.7868% | – | – | – | – | % Enzyme Activity (CYP1B1; CYP1B1, Log Conc -6.22472): 92.9716% and 93.6311% and 94.2558%; % Enzyme Activity (CYP1B1; CYP1B1, Log Conc -6.82678): 109.545% and 110.274% and 80.1816% |
